{"source": "patent US20220017468A1", "about": "“ISOQUINOLINE COMPOUNDS AND THEIR USE IN TREATING AhR IMBALANCE” (Dermavant Sciences GmbH, priority 2020, published 2022)", "key": {"Minipig Plasma Proteins": {"tested_on": "Minipig Plasma Proteins", "test": "plasma protein binding by Rapid Equilibrium Dialysis, minipig", "type": "in vitro ADME", "description": "(§1) The blood-to-plasma ratios were similar across species (1.22-1.36, Table 9)."}, "[1]": {"test": "plasma protein binding by Rapid Equilibrium Dialysis, minipig", "type": "in vitro ADME", "details": "minipig, plasma", "description": "as §1"}, "[2]": {"test": "blood-to-plasma ratio and blood cell association, rat", "type": "in vitro ADME"}, "[3]": {"tested_on": "imiquimod (IMQ)-treated mouse", "test": "IMQ mouse model of psoriasis", "type": "in vivo", "details": "for IL-17% effect vs. IMQ + SEM / IL-17F %effect vs IMQ + SEM: tissue mRNA", "method": "Female BALB/c mice (BALB/cByJRj) were purchased from Janvier (France). Mice are allowed to eat a normal diet AO4C from SAFE (France) and drink ad libitum. BALB/c JByRj female mice (8 week-old at study initiation) are treated with imiquimod (IMQ) cream (5%) or vanicream (non-inflammatory inert cream). For three days of pre-treatment, and then daily until the end of the study (two hours before each application of IMQ), the same skin area is treated topically with 100 μL of compound. Mice are monitored for changes in clinical symptoms over the course of the study. Affected back skin is examined by histology and qPCR for evidence of compound efficacy.\nStarting 3 days after first treatment, IMQ cream was applied daily for 4 (StudyA) or 10 days (Study B). Clinical scoring was monitored daily (FIG. 5A, FIG. 5B). At the end of the study, treated skin was evaluated by histology and qPCR for induced cytokine gene expression.\nOn days 0, 1, 2, 3: visual evaluation of the skin and psoriasis clinical scorewere noted.\nPsoriasis reactions (erythema and plaques) are reported according to a 0-4 scale in ascending order of severity as shown below and results are shown in FIG. 5A1.\nOn the last day of treatment, a 6 mm punch of skin in the treated area is collected on a aluminium sheet (to keep the skin flattened) and placed into a tube containing Formalin solution (Neutral Buffered 10% (SIGMA HT501320-9 5L)) for histological analysis (FIG. 5A2).\nOn days 0, 1, 2, 3, 4, 5, 6, 7,8, 9: visual evaluation of the skin and psoriasis clinical score were noted.\nPsoriasis reactions (erythema and plaques) are reported according to a 0-4 scale in ascending order of severity as shown below and results are shown in FIG. 5B1.\nOn the last day of treatment, a 6 mm punch of skin in the treated area is collected on a aluminium sheet (to keep the skin flattened) and placed into a tube containing Formalin solution (Neutral Buffered 10% (SIGMA HT501320-9 5L)) for histological analysis (FIG. 5B2)."}, "[4]": {"test": "metabolic stability in hepatocytes, rabbit", "type": "in vitro ADME"}, "[5]": {"tested_on": "dinitrofluorobenzene (DNFB)-challenged mouse", "test": "DNFB mouse model", "type": "in vivo", "details": "0.3% in ethanolic formulation, twice daily", "description": "DNFB is a small chemical hapten that induces a delayed-type hypersensitivity reaction with some similarity to human atopic dermatitis. […] This may indicate reduced exposure to the compound in the second study, although additional data would be required to understand whether this discrepancy results from different dosing strategies (q.d. vs b.i.d.), limitations of cream formulation 1, or another reason.\nHealthy female CD1 mice (Crl:CD1(ICR)) were shaved on the abdomen and the nape of the neck under a 3 to 5% isoflurane anesthesia.\nAfter body weight measurement, animals were allocated to study groups, according to the treatment table below. The study was divided in two arms, separated by 1 week, in order to accommodate for the in life monitoring of scratching monitoring. Half of the animals from each group (6 mice) were allocated in arm 1 and arm 2 respectively.\nFor each topical treatment, 100 mg of cream or 100 μL of liquid formulation were applied on the mouse nape of the neck skin using a solvent pipette. When creams were used, they were spread with a finger and allowed to penetrate the skin by massage until complete absorption. […]\nMice were culled on Day 17 under a 3 to 5% isoflurane anesthesia, 4 hours after the last topical treatment, and 48 hours after the last DNFB or acetone/olive oil challenge. […] Epidermal (FIG. 6C1) and dermal thickness (FIG. 6C2) were measured."}}, "note": "Values joined by “and” are separate entries in the source; they are usually repeats but may differ in a detail not shown here. Equal entries are not always repeated. “Also recorded” adds a separate entry of the source. Where two headings read alike, the source gives them in different places.", "data": [{"smiles": "CC(C)c1c(O)cc(-c2cc3ccccc3cn2)cc1O", "values": [{"measurement": "recovery at 4 h, 2 μM", "setting": "Minipig Plasma Proteins", "value": 95.6, "unit": "%"}, {"measurement": "% Unbound Replicate", "setting": "Minipig Plasma Proteins; 2 μM", "value": "2.52% and 1.57%"}, {"measurement": "Mean % Stability at 4 hrs", "setting": "Minipig Plasma Proteins; 2 μM", "value": 107, "unit": "%"}, {"measurement": "fraction unbound at 4 h, 2 μM", "setting": "[1]; read-out: % Unbound Mean (% CV)", "value": 0.0198}, {"measurement": "fraction unbound at 4 h, 2 μM", "setting": "[1]; read-out: % Unbound Replicate", "value": 0.0187}, {"measurement": "fraction unbound at 4 h, 2 μM", "setting": "[1]; read-out: Mean % Bound (converted)", "value": 0.02}, {"measurement": "% Blood Cell Association Mean (% CV)", "setting": "[2]; 1 μM", "value": "60.2 (4.37) %"}, {"measurement": "% Blood Cell Association Replicate", "setting": "[2]; 1 μM", "value": "58.9% and 58.3% and 63.1%"}, {"measurement": "Blood-to-plasma Ratio Replicate", "setting": "[2]; 1 μM", "value": "1.29 and 1.46"}, {"measurement": "Mean % Blood Stability", "setting": "[2]; 1 μM", "value": 104, "unit": "%"}, {"measurement": "blood plasma ratio at 1 μM", "setting": "[2]; read-out: Blood-to-plasma Ratio Mean (% CV)", "value": 1.36}, {"measurement": "blood plasma ratio at 1 μM", "setting": "[2]; read-out: Blood-to-plasma Ratio Replicate", "value": 1.31}, {"measurement": "IL-17% effect vs. IMQ + SEM", "setting": "[3]; Study A, 0.3% + IMQ", "value": "16.27 + 4.816%"}, {"measurement": "IL-17F %effect vs IMQ + SEM", "setting": "[3]; Study A, 0.3% + IMQ", "value": "22.21 + 7.418%"}, {"measurement": "IL-17% effect vs. IMQ + SEM", "setting": "[3]; Study B, 0.1% + IMQ", "value": "78.48 + 18.771%"}, {"measurement": "IL-17F %effect vs IMQ + SEM", "setting": "[3]; Study B, 0.1% + IMQ", "value": "45.23 + 9.519%"}, {"measurement": "IL-17% effect vs. IMQ + SEM", "setting": "[3]; Study B, 0.3% + IMQ", "value": "79.33 + 22.900%"}, {"measurement": "IL-17F %effect vs IMQ + SEM", "setting": "[3]; Study B, 0.3% + IMQ", "value": "60.01 + 12.229%"}, {"measurement": "clinical score", "setting": "[3]; daily topical, 60% EtOH: 40% H2O solution, vs vehicle-treated mice", "value": "reduced clinical score"}, {"measurement": "skin cytokine gene expression (IL-17A, IL-17F)", "setting": "[3]; topical, qPCR", "value": "significantly inhibited; also recorded: reduced cytokine gene expression"}, {"measurement": "epidermis thickening induced by imiquimod", "setting": "[3]; topical, skin histology", "value": "reduce the epidermis thickening; also recorded: reduced epidermal thickening"}, {"measurement": "half-life at 0.5 μM", "setting": "[4]", "value": 21.3, "unit": "min"}, {"measurement": "CLint, hep", "setting": "[4]; 0.5 μM", "value": 7.80, "unit": "mL/min/g liver"}, {"measurement": "CLint scaled at 0.5 μM", "setting": "[4]; read-out: Scaled CLint, hep", "value": 240, "unit": "mL/min/kg"}, {"measurement": "reduction in dermal thickness", "setting": "[5]", "value": 34, "unit": "%"}, {"measurement": "reduction in epidermal thickness", "setting": "[5]", "value": 20, "unit": "%"}]}]}
